Reference: patent publication US10017524B2, “Compound and pharmaceutical composition for neuropsychological disorder or malignant tumor” (KYOTO UNIVERSITY, priority 2012, dated 2018)
Each block holds one compound with its values, some of them ahead of it.

Legend:
[1] = test system: phosphorylation of a threonine residue at position 212 of tau protein by DYRK1A protein; assay: Inhibitory activity on phosphorylation of tau protein in cultured cells expressing tau and DYRK1A (western blot, Thr212); format: cell-based; conditions: phospho-Thr212 tau
Experimental: The inhibitory activity of the compounds synthesized in the production examples on the phosphorylation of tau protein was evaluated by an evaluation system using the following cultured cells.
The cultured cells that can induce the expressions of tau protein and DYRK1A protein individually and that allow the phosphorylation of the tau protein to be evaluated depending on the activity of the DYRK1A protein were used in the evaluation system. […] Therefore, the inhibitory activity on the phosphorylation of the tau protein can be evaluated by inducing the expressions of both the tau protein and the DYRK1A protein, and evaluating the degree of phosphorylation of a threonine residue at position 212 of the tau protein.
The compounds 1, 4, and 6 to 9 (10 μM) were added to the evaluation system, and the phosphorylation of the tau protein was detected with the antibody that specifically recognizes the phosphorylation of a threonine residue at position 212 of the tau protein. […] The “control” represents the result of adding no compound.
The inhibitory activity of the compounds 1 and 2 on the phosphorylation of tau protein was evaluated in the same manner as the Experimental example 1.
(§1) The “control” represents the result of adding no compound.
The inhibitory activity of the compounds 3, 6, and 9 to 15 on the phosphorylation of tau protein was evaluated in the same manner as the experimental example 1. FIGS. 7 to 9 show an example of the results.

[2] = test system: MDA-MB-453 human breast cancer cells (triple-negative); assay: Growth inhibition, adherent and non-adherent culture (Alamar Blue); format: cell-based; conditions: MDA-MB-453, cells cultured to prevent adhering
Experimental: (§2) Specifically, the cells were seeded on a 24 Well plate, and the compounds at a predetermined concentration were added. After cultivation for 5 days, the number of cells was calculated by detecting the fluorescence intensity with Alamar Blue. The culture medium containing the compounds was replaced every day. FIGS. 10 to 12 show an example of the results.
(§3) In addition, the effect was also confirmed when the target cells were cultured to prevent them from adhering to each other.

[3] = test system: MDA-MB-468 human breast cancer cells (triple-negative); assay: as above; format: cell-based; conditions: MDA-MB-468, cells cultured to prevent adhering
Experimental: as §2, §3

[4] = test system: retinoblastoma cell lines WERI; assay: Inhibition of growth of cancer cells (Alamar Blue); format: cell-based
Experimental: as §2

[5] = test system: phosphorylation of tau protein in the brain; assay: Inhibition of stress-induced phosphorylation of tau protein in the brain; format: in vivo; conditions: mice, 100 mg/kg before stress (ice-cold water 5 minutes), brain tissue western blot
Experimental: The inhibitory activity of the compounds 1 and 2 on the phosphorylation of tau protein in the brain was evaluated. In the evaluation, a system was used which induced the phosphorylation of tau protein by imposing stress on mice (i.e., bathing the mice in ice-cold water for 5 minutes).

[6] = Oral absorbability and intracerebral transferability (plasma and brain tissue concentration); format: in vivo; conditions: ICR mouse, 100 mg/kg; for Kp / half-life: male; for Kp: brain tissue / plasma, read-out: Brain tissue/blood ratio (B/P: mL/g); for half-life: plasma and brain tissue, read-out: Half-life in blood and in brain tissue
Experimental: The oral absorbability and the intracerebral transferability of the compounds 1 and 2 were evaluated under the following conditions. FIG. 6 and Table 1 show an example of the results.
Experimental animal: 7-week-old male ICR mouse, oral administration
Administered vehicle: 0.5% carboxymethylcellulose
Compound dosage: 100 mg/kg
FIG. 6 and Table 1 show an example of the results of measuring a plasma concentration and a brain tissue concentration after oral administration of the compounds 1 and 2. As shown in FIG. 6 and Table 1, the results confirmed that the compounds 1 and 2 had both oral absorbability and intracerebral transferability.

DYRK1A = DYRK1A (Homo sapiens, UniProt Q13627); assay: DYRK1A inhibitory capacity in vitro; format: biochemical
Source text: as §1

[7] = Intracerebral transferability after caudal vein administration; format: in vivo; conditions: male, Wistar, intravenous, rat, 2 mg/head
Experimental: The intracerebral transferability of the compound 1 was evaluated under the following conditions. […] In other words, the intracerebral transferability of the compound 1 was confirmed.
Experimental animal: 8-week-old male Wistar rat (about 300 g), caudal vein administration
Administered vehicle: 20% PPG/8% tween 80/saline (2 mL/head)
Compound dosage: 2 mg/head
Sampling time: 3 minutes after administration for plasma; 7 minutes after administration for cerebrospinal fluid

Oral absorbability = format: in vivo, B6J mouse; conditions: mouse, oral administration, 100 mg/kg, 5% gum arabic, plasma
Experimental: The oral absorbability of the compound 1 was evaluated under the following conditions.

[8] = test system: human lung adenocarcinoma-derived cell lines (PC-9); assay: Growth inhibition, microscopic observation; format: cell-based; conditions: PC-9 lines, microscope
[9] = test system: PC-9-GR-step lines (gefitinib-resistant sub-lines of PC-9); assay: Growth inhibition, microscopic observation; format: cell-based, human; conditions: microscope
PC-9-GR-high lines = assay: Growth inhibition, microscopic observation; format: cell-based, human; conditions: microscope
[10] = test system: memory and learning disabilities induced by amyloid-β peptide (25-35); assay: Remedial action on memory and learning disabilities induced by amyloid-β peptide (water maze, probe test); format: in vivo, Swiss mice; conditions: mice, amyloid-β icv, 100 mg/kg twice a day
Experimental: The remedial action of the compound 2 on memory and learning disabilities was evaluated. In the evaluation, amyloid-β peptide was administered into the cerebral ventricles of mice, and an evaluation system that induces memory and learning disabilities was used (Maurice et al., 1996). The tests were performed using 6-week-old male Swiss mice, which were divided into groups of 12 (n=12). Amyloid-β peptide (25-35, sequence: Gly-Ser-Asn-Lys-Gly-Ala-Ile-Ile-Gly-Leu-Met) (SEQ ID NO: 1) or scrambled amyloid-β (25-35, sequence: Ala-Lys-Ile-Gly-Asn-Ser-Ile-Gly-Leu-Met-Gly) (SEQ ID NO: 2) which was used as control peptide, was dissolved in distilled water, and each of the peptide solutions was incubated at 37° C. for 4 days.
The compound 2 for medication was dissolved in DMSO, and then diluted with 0.5% methylcellulose, thereby preparing a 10 mg/mL solution. […]
In order to evaluate a reference memory, water maze was performed three times a day using a circular pool (140 cm in diameter and 40 cm in height) and a platform (10 cm in diameter) between the 8th day and the 12th day of the tests. […] During the recording, the total time the mice spent in one-fourth of the area of the circle, including the place where the platform had been located until the previous day, was recorded. […]

[11] = compounds of 10 μM, cells expressing tau and DYRK1A

Structure (SMILES): N=C1NC(=O)/C(=C/c2ccc3oc4ccccc4c3c2)S1 [Compound 9, (Z)-5-[(dibenzo[b,d]furan-2-yl)methylene]-2-iminothiazolidin-4-one]
- inhibitory effect on the phosphorylation of the tau protein [1, 11]: inhibitory effect

Structure (SMILES): CCN1/C(=C/C(C)=O)Sc2ccc3oc4cc(Cl)ccc4c3c21 [Compound 13, (Z)-1-(8-chloro-1-ethylbenzo[2,3]benzofuro[4,5-d]thiazol-2(1H)-ylidene)propan-2-one]
- inhibitory effect on the phosphorylation of the tau protein [1, 11]: inhibitory effect

Structure (SMILES): O=C1NC(=S)N/C1=C\c1ccc2oc3ccccc3c2c1 [Compound 15, (Z)-5-[(dibenzo[b,d]furan-2-yl)methylene]-2-thioxoimidazolidin-4-one]
- inhibitory effect on the phosphorylation of the tau protein [1, 11]: inhibitory effect
- inhibitory effect on the anchorage-independent growth [2]: inhibitory effect
- inhibitory effect on the anchorage-independent growth [3]: inhibitory effect

Structure (SMILES): O=C1NC(=S)S/C1=C\c1ccc2c(c1)CCO2 [Compound 4, (Z)-5-[(2,3-dihydrobenzofuran-5-yl)methylene]-2-thioxothiazolidin-4-one]
- inhibitory effect on the phosphorylation of the tau protein [1, 11]: inhibitory effect

- Maximum blood concentration [6]: 1900 ng/mL
- Maximum brain tissue concentration [6]: 1700 ng/g
- Time to maximum concentration in blood and in brain tissue [6]: within 15 minutes
- Kp [6]: ~0.9
- half-life [6]: ≤ 1 h
- IC50 (DYRK1A): 49 nM
- concentration at 7 min ([7]; cerebrospinal fluid, 7 minutes after administration): 1.88 µM
- concentration at 3 min ([7]; plasma, 3 minutes after administration): 13.5 µM
- oral absorbability (Oral absorbability): confirmed
Structure (SMILES): CCN1/C(=C/C(C)=O)Sc2ccc3c(c21)CCO3 [Compound 1, (Z)-1-[1-ethyl-7,8-dihydrobenzofuro[4,5-d]thiazol-2(1H)-ylidene]propan-2-one]
- inhibitory effect on the growth of the cancer cells [4]: inhibitory effect
- inhibition of stress-induced phosphorylation of the tau protein in brain [5]: could inhibit the stress-induced phosphorylation of the tau protein
- inhibitory effect on the phosphorylation of the tau protein ([1]; compounds at 0.3 to 10 μM): significant inhibitory effect
- inhibitory effect on the phosphorylation of the tau protein [1, 11]: significant inhibitory effect

Structure (SMILES): N=C1NC(=O)/C(=C/c2ccc3c(c2)CCO3)S1 [Compound 7, (Z)-5-[(2,3-dihydrobenzofuran-5-yl)methylene]-2-iminothiazolidin-4-one]
- inhibitory effect on the phosphorylation of the tau protein [1, 11]: significant inhibitory effect

Structure (SMILES): O=C1NC(=S)S/C1=C\c1ccc2oc3ccccc3c2c1 [Compound 6, (Z)-5-[(dibenzo[b,d]furan-2-yl)methylene]-2-thioxothiazolidin-4-one]
- inhibitory effect on the phosphorylation of the tau protein [1, 11]: significant inhibitory effect

Structure (SMILES): CCN1/C(=C/C(C)=O)Sc2ccc3oc4ccc(C)cc4c3c21 [Compound 12, (Z)-1-(1-ethyl-9-methylbenzo[2,3]benzofuro[4,5-d]thiazol-2(1H)-ylidene)propan-2-one]
- apoptosis-inducing activity on the cancer cells [8]: excellent apoptosis-inducing activity
- apoptosis-inducing activity on the cancer cells [9]: excellent apoptosis-inducing activity
- apoptosis-inducing activity on the cancer cells (PC-9-GR-high lines): excellent apoptosis-inducing activity
- inhibitory effect on the phosphorylation of the tau protein [1, 11]: inhibitory effect

Structure (SMILES): N=C1NC(=O)/C(=C/c2ccc3occc3c2)S1 [Compound 8, (Z)-5-[(benzofuran-5-yl)methylene]-2-iminothiazolidin-4-one]
- inhibitory effect on the phosphorylation of the tau protein [1, 11]: significant inhibitory effect

Structure (SMILES): CCN1/C(=C/C(C)=O)Sc2ccc3oc4cc(C)ccc4c3c21 [Compound 11, (Z)-1-(1-ethyl-8-methylbenzo[2,3]benzofuro[4,5-d]thiazol-2(1H)-ylidene)propan-2-one]
- inhibitory effect on the phosphorylation of the tau protein [1, 11]: inhibitory effect

- Maximum blood concentration [6]: 8400 ng/mL
- Maximum brain tissue concentration [6]: 8500 ng/g
- Time to maximum concentration in blood and in brain tissue [6]: 2 h
- Kp [6]: ~1
- half-life [6]: ≥ 4 h
- IC50 (DYRK1A): 40 nM
Structure (SMILES): CCN1/C(=C/C(C)=O)Sc2ccc3occc3c21 [Compound 2, (Z)-1-[1-ethyl-7,8-benzofuro[4,5-d]thiazol-2(1H)-ylidene]propan-2-one]
- inhibition of stress-induced phosphorylation of the tau protein in brain [5]: could inhibit the stress-induced phosphorylation of the tau protein
- reference memory in water maze (time to reach the platform) ([10]; 8th to 12th day): improved the reduced memory and learning abilities
- probe test (time spent around the platform) ([10]; 13th day): improved the reduced memory and learning abilities
- inhibitory effect on the phosphorylation of the tau protein ([1]; compounds at 0.3 to 10 μM): significant inhibitory effect

Structure (SMILES): CCN1/C(=C/C(C)=O)Sc2ccc3oc4cc(C)c(C)cc4c3c21 [Compound 10, (Z)-1-(8,9-dimethyl-1-ethylbenzo[2,3]benzofuro[4,5-d]thiazol-2(1H)-ylidene)propan-2-one]
- inhibitory effect on the phosphorylation of the tau protein [1, 11]: inhibitory effect

Structure (SMILES): CCN1/C(=C/C(C)=O)Sc2ccc3oc4ccc(Cl)cc4c3c21 [Compound 14, (Z)-1-(9-chloro-1-ethylbenzo[2,3]benzofuro[4,5-d]thiazol-2(1H)-ylidene)propan-2-one]
- inhibitory effect on the phosphorylation of the tau protein [1, 11]: inhibitory effect
